Experiments:
Test in all cases: Cross resistance to bleaching herbicides, in vitro PDS inhibition, non-His-tagged (Table 2)
[1] = target: hydrilla PDS Arg^304 → Cysteine (Hydrilla verticillata, UniProt Q66PY0, R304C); format: biochemical; conditions: Cysteine at 304; construct in frame with LacZalpha-ccdB, non-His-tagged; read-out: I50
Method: (§1) The expression constructs in Table 2 were derived from an original clone of the susceptible PDS gene from Hydrilla and then the Arg^304 was mutated to the listed amino acid. Expression was under the control of the lac promoter but in frame with the initiation codon of the LacZalpha-ccdB gene in the pCR4-TOPO vector (Invitrogen Inc., CA, Cat. #K4575-01).
(§2) All mutagenesis was performed, unless stated otherwise, using the TOPO-vector containing the wildtype (H4) PDS-sequence, which was extracted from an overnight culture with the Qiagen Plasmid Prep Kit as described above. The amount of the extracted plasmid was diluted to 10 ng/μl and used as template in a mutagenesis-procedure using the QuikChange Site-directed Mutagenesis Kit (Stratagene, Calif., #200518). The design of the mutagenesis-primers was conducted according to the manufacturers protocol to enable the specific change of Arg^304-codon to code for the desired amino acid. Primers (purchased from MWG-Biotech) and their introduced amino acid change are listed below with the changed codon underlined:
(§3) The reactions were performed according to the manufacturers protocol. Reactions were set up in MicroAmp-tubes on ice with 38 μl ddH2O, 5 μl 10× reaction buffer, 2 μl plasmid (10 ng/μl), 1.25 μl forward-mutagenesis primer (100 ng/μl), 1.25 μl of reverse mutagenesis primer (100 ng/μl), 1 μl dNTP-mix and 1 μl PfuTurboDNA polymerase (2.5 U/μl). The reactions were placed in a PE 9700 thermal cycler and heated to 95° C. for 30 sec followed by 12 rounds at 95° C. for 30 sec, 55° C. for 1 min and 68° C. for 12 min. The PCR was followed by a DpnI-digestion and transformation in XL1-Blue supercompetent cells as described in the manual. 4-6 resulting colonies were grown overnight in LB-medium with kanamycin and plasmid DNA was isolated as described above. The plasmid was used as template for sequencing with M13 and internal PDS-primers as described above on a LiCOR-system. Sequences were assembled and analyzed using Seqman. Introduced mutations were identified and plasmids carrying the desired mutation(s) were transferred into competent TOP10-cells, using the transformation protocol from the TOPO TA Cloning Kit. Resulting colonies were grown overnight in Wu-broth with kanamycin, aliquoted and stored at −80° C. until further use. 1 ml of Wu-cultures was used to start 1-L LB-cultures with kanamycin as described before, to express active PDS-enzyme for testing as described.
(§4) Phytoene desaturase activity and its inhibition by herbicides was determined using an in vitro system using components derived from the in vivo production of phytoene and phytoene desaturase proteins. All mutations described in Examples 3 and 4 were tested. […] The clones were used for the heterologous expression of Hydrilla-PDS-enzyme. In particular, bacterial cultures were grown from single colonies overnight in Wu-broth (6.27 g/L K2HPO4, 1.8 g/L KH2PO4, 0.5 g/L Na-citrate, 0.9 g/L (NH4)2SO4, 10 g/L tryptone, 5 g/L yeast extract, 10 g/L NaCl, 44 ml/L glycerol, 0.1 mM MgSO4, pH 7.2) with kanamycin. 1-mL was aliquoted in centrifuge tube and stored at −80° C. For expression, 1 L LB-medium with kanamycin was inoculated with 1-mL Wu-culture and grown for 24 h at 37° C. to stationary phase with shaking at 200 rpm. The cells were collected by centrifugation at 2000×g. All of the following steps were done at 4° C. unless otherwise noted. Active soluble PDS enzyme was extracted by lysing the transformed E. coli cells using a French Press at 20,000 psi in assay buffer consisting of 100 mM Tris-HCl, pH 7.2, 10 mM magnesium-chloride, 0.1 mM NADP, 0.1 mM FAD, 10 mM cysteine, 5 mM DTT, 1 mM aminocaproic acid, and 1 μg/ml leupeptin. The soluble fraction containing PDS activity was obtained by centrifugation for 10 min at 1200×g. After 24 h they were centrifuged down and used in PDS enzyme activity assays as described below.

[2] = tested on: hydrilla PDS Arg^304 → Cysteine; format: biochemical, Hydrilla verticillata; conditions: Cysteine at 304 relative to Arginine; Table 2
Method: as §1, §2, §3, §4

[3] = target: hydrilla PDS Arg^304 → Histidine (Hydrilla verticillata, UniProt Q66PY0, R304H); format: biochemical; conditions: Histidine at 304; construct in frame with LacZalpha-ccdB, non-His-tagged; read-out: I50
Method: as §1, §2, §3, §4

[4] = tested on: hydrilla PDS Arg^304 → Histidine; format: biochemical, Hydrilla verticillata; conditions: Histidine at 304 relative to Arginine; Table 2
Method: as §1, §2, §3, §4

[5] = tested on: hydrilla PDS Arg^304 → Serine; format: biochemical, Hydrilla verticillata; conditions: Serine at 304 relative to Arginine; Table 2
Method: as §1, §2, §3, §4

[6] = target: hydrilla PDS position 304 Arginine (wildtype) (Hydrilla verticillata, UniProt Q66PY0); format: biochemical; conditions: for R/S: Arginine at 304 (reference), Table 2; for IC50: Arginine at 304, construct in frame with LacZalpha-ccdB, non-His-tagged, read-out: I50
Method: as §1, §2, §3, §4

Chain of hydrilla PDS Arg^304 → Histidine (Hydrilla verticillata, UniProt Q66PY0, R304H) (Q66PY0 1-580 R304H): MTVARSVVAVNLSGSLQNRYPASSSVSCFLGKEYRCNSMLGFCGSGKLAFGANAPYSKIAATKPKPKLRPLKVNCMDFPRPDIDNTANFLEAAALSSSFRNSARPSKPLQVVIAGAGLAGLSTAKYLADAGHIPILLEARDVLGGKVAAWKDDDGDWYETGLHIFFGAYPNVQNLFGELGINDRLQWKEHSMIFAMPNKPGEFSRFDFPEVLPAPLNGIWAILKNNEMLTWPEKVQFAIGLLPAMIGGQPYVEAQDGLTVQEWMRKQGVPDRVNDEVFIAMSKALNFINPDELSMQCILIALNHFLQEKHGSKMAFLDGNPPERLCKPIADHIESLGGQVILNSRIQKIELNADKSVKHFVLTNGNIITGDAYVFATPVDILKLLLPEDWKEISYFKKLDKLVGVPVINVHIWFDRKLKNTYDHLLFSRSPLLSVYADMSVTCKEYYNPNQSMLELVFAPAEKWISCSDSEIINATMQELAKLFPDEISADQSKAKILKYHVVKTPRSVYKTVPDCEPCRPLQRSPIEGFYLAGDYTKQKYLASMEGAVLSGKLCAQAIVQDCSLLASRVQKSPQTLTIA
Chain of hydrilla PDS Arg^304 → Cysteine (Hydrilla verticillata, UniProt Q66PY0, R304C) (Q66PY0 1-580 R304C): as the sequence (Q66PY0 1-580 R304H) above, with H304C counted along it
Chain of hydrilla PDS position 304 Arginine (wildtype) (Q66PY0 1-580): as the sequence (Q66PY0 1-580 R304H) above, with H304R counted along it

Work on CCC(Oc1ccc(F)c(C(F)(F)F)c1)C(=O)NCc1ccccc1 (centres unmarked) [Beflubutamid] yielded an IC50 [1] of 3.5 µM, a R/S [2] of 0.8 and an IC50 [3] of 3 µM. The R/S [4] was 0.7, the R/S [5] was 0.6 and the R/S [6] was 1. The IC50 [6] was 4.3 µM.
Work on O=C(Nc1ccc(F)cc1F)c1cccnc1Oc1cccc(C(F)(F)F)c1 [Diflufenican] yielded an IC50 [1] of 2.1 µM, a R/S [2] of 0.4 and an IC50 [3] of 2 µM. The R/S [4] was 0.4, the R/S [5] was 0.2 and the R/S [6] was 1. The IC50 [6] was 5.8 µM.
O=C1C(Cl)C(CCl)CN1c1cccc(C(F)(F)F)c1 (centres unmarked) [Fluorochloridone] showed an IC50 [1] of 44.3 µM, a R/S [2] of 3.6 and an IC50 [3] of 14 µM. The R/S [4] was 1.1, the R/S [5] was 1.9 and the R/S [6] was 1. For the same compound, the IC50 [6] was 12.2 µM.
Compound CNC1=C(c2cccc(C(F)(F)F)c2)C(=O)C(c2ccccc2)O1 (centres unmarked) [Flurtamone] has an IC50 [1] of 5.3 µM, a R/S [2] of 1.9 and an IC50 [3] of 3.3 µM. For the same compound, the R/S [4] was 1.2, the R/S [5] was 2.1 and the R/S [6] was 1. The IC50 [6] was 2.8 µM.
CNc1cnn(-c2cccc(C(F)(F)F)c2)c(=O)c1Cl [Norflurazon] gave an IC50 [1] of 89.4 µM, a R/S [2] of 28.8 and an IC50 [3] of 5 µM. It also gave a R/S [4] of 1.6, a R/S [5] of 17.7 and an IC50 [6] of 3.1 µM.
O=C(Nc1ccc(F)cc1)c1cccc(Oc2cccc(C(F)(F)F)c2)n1 [Piconilafen, Picolinafen] gave an IC50 [1] of 2.4 µM, a R/S [2] of 0.4 and an IC50 [3] of 3 µM. It also gave a R/S [4] of 0.5, a R/S [5] of 0.4 and an IC50 [6] of 5.6 µM.
Fluridone gave a R/S [2] of 3.2, a R/S [4] of 2.8 and a R/S [5] of 5.5. For the same compound, the R/S [6] was 1.

— patent US20110098180A1, “Herbicide-Resistant Plants, And Polynucleotides And Methods For Providing Same” (United States Department of Agriculture, priority 2002, published 2011)
